Experimental data from patent US20240228504A1, “SUBSTITUTED TRICYCLIC AMIDES, ANALOGUES THEREOF, AND METHODS USING SAME” (Arbutus Biopharma Corporation, priority 2020, published 2024).
pEC50: −log10 of the molar value.

These compounds were tested on HBV rcDNA in HepDE19 cells (assay: HepDE19 assay with bDNA quantitation of HBV rcDNA). Conditions: HepDE19 assay, inhibition of rcDNA formation, bDNA quantitation; read-out: DE-19bDNA EC50.
Type: cell-based, hepatitis B virus
Compound `CN(C(=O)c1cc2sc(Cl)cc2[nH]1)C1CNCc2[nH]c(=O)c3cc(F)c(F)cc3c21` (single isomer, unassigned) [Compound 454, 2-chloro-N-(8,9-difluoro-6-oxo-1,2,3,4,5,6-hexahydrobenzo[c][1,7]naphthyridin-1-yl)-N-methyl-4H-thieno[3,2-b]pyrrole-5-carboxamide] has a pEC50 of 7.70. With `CN(C(=O)c1cc2c(F)cc(F)cc2[nH]1)C1CNCc2[nH]c(=O)c3cc(F)c(F)cc3c21` (single isomer, unassigned) [Compound 117, N-(8,9-Difluoro-6-oxo-1,2,3,4,5,6-hexahydrobenzo[c][1,7]naphthyridin-1-yl)-4,6-difluoro-N-methyl-1H-indole-2-carboxamide] the pEC50 was 7.70. Compound `CN(C(=O)c1ccc(-c2cccc(F)c2)cc1)C1CNCc2[nH]c(=O)c3cc(F)c(F)cc3c21` (single isomer, unassigned) [Compound 302, N-(8,9-Difluoro-6-oxo-1,2,3,4,5,6-hexahydrobenzo[c][1,7]naphthyridin-1-yl)-3′-fluoro-N-methyl-[1,1′-biphenyl]-4-carboxamide] has a pEC50 of 5.97. For `CN(C(=O)c1ccc2cccn2c1)C1CNCc2[nH]c(=O)c3cc(F)c(F)cc3c21` (single isomer, unassigned) [Compound 391, N-(8,9-difluoro-6-oxo-1,2,3,4,5,6-hexahydrobenzo[c][1,7]naphthyridin-1-yl)-N-methylindolizine-6-carboxamide], the pEC50 was 4.66. In the case of `CN(C(=O)c1cc2cccc(F)c2[nH]1)C1COCc2[nH]c(=O)c3cc(F)c(F)cc3c21` (single isomer, unassigned) [Compound 40, N-(8,9-Difluoro-6-oxo-1,4,5,6-tetrahydro-2H-pyrano[3,4-c]isoquinolin-1-yl)-7-fluoro-N-methyl-1H-indole-2-carboxamide], the pEC50 was 8.00. With `CN(C(=O)c1ccc2ncsc2c1)C1COCc2[nH]c(=O)c3cc(F)ccc3c21` (single isomer, unassigned) [Compound 446, N-(8-fluoro-6-oxo-1,4,5,6-tetrahydro-2H-pyrano[3,4-c]isoquinolin-1-yl)-N-methylbenzo[d]thiazole-6-carboxamide] the pEC50 was 4.80. `CN(C(=O)c1ccc2cccn2c1)C1COCc2[nH]c(=O)c3cc(F)ccc3c21` (single isomer, unassigned) [Compound 389, N-(8-Fluoro-6-oxo-1,4,5,6-tetrahydro-2H-pyrano[3,4-c]isoquinolin-1-yl)-N-methylindolizine-6-carboxamide] showed a pEC50 of 4.77. In the case of `CN(C(=O)c1cc2c(C(F)F)cc(F)cc2[nH]1)C1CNCc2[nH]c(=O)c3cc(F)c(F)cc3c21` (single isomer, unassigned) [Compound 258, N-(8,9-Difluoro-6-oxo-1,2,3,4,5,6-hexahydrobenzo[c][1,7]naphthyridin-1-yl)-4-(difluoromethyl)-6-fluoro-N-methyl-1H-indole-2-carboxamide], the pEC50 was 7.70. For `CN(C(=O)c1cc2c(F)cccc2[nH]1)C1CNCc2[nH]c(=O)c3cc(F)c(F)cc3c21` (single isomer, unassigned) [Compound 105, N-(8,9-Difluoro-6-oxo-1,2,3,4,5,6-hexahydrobenzo[c][1,7]naphthyridin-1-yl)-4-fluoro-N-methyl-1H-indole-2-carboxamide], the pEC50 was 8.00. Compound `CN(C(=O)c1ccc2ncsc2c1)C1CNCc2[nH]c(=O)c3cc(F)c(F)cc3c21` (single isomer, unassigned) [Compound 465, N-(8,9-difluoro-6-oxo-1,2,3,4,5,6-hexahydrobenzo[c][1,7]naphthyridin-1-yl)-N-methylbenzo[d]thiazole-6-carboxamide] has a pEC50 of 5.49. With `CN(C(=O)c1cc2c(F)c(F)ccc2[nH]1)C1CNCc2[nH]c(=O)c3cc(F)c(F)cc3c21` (single isomer, unassigned) [Compound 120, N-(8,9-Difluoro-6-oxo-1,2,3,4,5,6-hexahydrobenzo[c][1,7]naphthyridin-1-yl)-4,5-difluoro-N-methyl-1H-indole-2-carboxamide] the pEC50 was 6.07. `CN(C(=O)c1cc2c(F)cccc2[nH]1)C1COCc2[nH]c(=O)c3cc(F)ccc3c21` (single isomer, unassigned) [Compound 19, 4-Fluoro-N-(8-fluoro-6-oxo-1,4,5,6-tetrahydro-2H-pyrano[3,4-c]isoquinolin-1-yl)-N-methyl-1H-indole-2-carboxamide] showed a pEC50 of 5.82. Work on `CN(C(=O)c1cc2c(F)cc(F)cc2[nH]1)C1COCc2[nH]c(=O)c3cc(F)ccc3c21` (single isomer, unassigned) [Compound 36, 4,6-Difluoro-N-(8-fluoro-6-oxo-1,4,5,6-tetrahydro-2H-pyrano[3,4-c]isoquinolin-1-yl)-N-methyl-1H-indole-2-carboxamide] yielded a pEC50 of 7.70.

Same assay, conditions: Hepatitis B virus, HepDE19, HepDE19 assay, inhibition of rcDNA formation, bDNA quantitation; read-out: DE-19bDNA EC50
With `CN(C(=O)c1cc2ccc(F)cn2c1)[C@@H]1COCc2[nH]c(=O)c3cc(F)c(F)cc3c21` [Compound 224, (S)-N-(8,9-Difluoro-6-oxo-1,4,5,6-tetrahydro-2H-pyrano[3,4-c]isoquinolin-1-yl)-6-fluoro-N-methylindolizine-2-carboxamide] the pEC50 was 8.00. In the case of `CN(C(=O)c1cccc(Br)c1)[C@@H]1COCc2[nH]c(=O)c3cc(F)c(F)cc3c21` [Compound 129, (S)-3-Bromo-N-(8,9-difluoro-6-oxo-1,4,5,6-tetrahydro-2H-pyrano[3,4-c]isoquinolin-1-yl)-N-methylbenzamide], the pEC50 was 7.05. Compound `CN(C(=O)c1cc2cc(F)ncc2[nH]1)[C@@H]1COCc2[nH]c(=O)c3cc(F)c(F)cc3c21` [Compound 310, (S)-N-(8,9-Difluoro-6-oxo-1,4,5,6-tetrahydro-2H-pyrano[3,4-c]isoquinolin-1-yl)-5-fluoro-N-methyl-1H-pyrrolo[2,3-c]pyridine-2-carboxamide] has a pEC50 of 7.52. In the case of `CN(C(=O)c1ccc(C(F)(F)F)cc1)[C@@H]1COCc2[nH]c(=O)c3cc(F)c(F)cc3c21` [Compound 98, (S)-N-(8,9-Difluoro-6-oxo-1,4,5,6-tetrahydro-2H-pyrano[3,4-c]isoquinolin-1-yl)-N-methyl-4-(trifluoromethyl)benzamide], the pEC50 was 8.00. Compound `CN(C(=O)C(F)(F)c1cccc(Br)c1)[C@@H]1COCc2[nH]c(=O)c3cc(F)c(F)cc3c21` [Compound 252, (S)-2-(3-Bromophenyl)-N-(8,9-difluoro-6-oxo-1,4,5,6-tetrahydro-2H-pyrano[3,4-c]isoquinolin-1-yl)-2,2-difluoro-N-methylacetamide] has a pEC50 of 5.11. `CN([C@@H]1COCc2[nH]c(=O)c3cc(F)c(F)cc3c21)S(=O)(=O)c1ccc(F)c(C#N)c1` [Compound 146, (S)-3-Cyano-N-(8,9-difluoro-6-oxo-1,4,5,6-tetrahydro-2H-pyrano[3,4-c]isoquinolin-1-yl)-4-fluoro-N-methylbenzenesulfonamide] gave a pEC50 of 4.64. For `CN(C(=O)c1cc2cc(F)c(F)cc2[nH]1)[C@@H]1COCc2c1c1cc(F)c(F)cc1c(=O)n2CCO` [Compound 315, (S)-N-(8,9-Difluoro-5-(2-hydroxyethyl)-6-oxo-1,4,5,6-tetrahydro-2H-pyrano[3,4-c]isoquinolin-1-yl)-5,6-difluoro-N-methyl-1H-indole-2-carboxamide], the pEC50 was 7.52. `CN(C(=O)c1ccc(C(F)(F)F)c(F)c1)[C@@H]1COCc2[nH]c(=O)c3cc(F)c(F)cc3c21` [Compound 74, (S)-N-(8,9-Difluoro-6-oxo-1,4,5,6-tetrahydro-2H-pyrano[3,4-c]isoquinolin-1-yl)-3-fluoro-N-methyl-4-(trifluoromethyl)benzamide] showed a pEC50 of 8.00. `CN(C(=O)c1cc2c(Cl)nccc2[nH]1)[C@@H]1COCc2[nH]c(=O)c3cc(F)c(F)cc3c21` [Compound 372, (S)-4-Chloro-N-(8,9-difluoro-6-oxo-1,4,5,6-tetrahydro-2H-pyrano[3,4-c]isoquinolin-1-yl)-N-methyl-1H-pyrrolo[3,2-c]pyridine-2-carboxamide] was tested, and the pEC50 was 7.70. `CN(C(=O)c1ccnc(F)c1)[C@@H]1COCc2[nH]c(=O)c3cc(F)c(F)cc3c21` [Compound 85, (S)-N-(8,9-Difluoro-6-oxo-1,4,5,6-tetrahydro-2H-pyrano[3,4-c]isoquinolin-1-yl)-2-fluoro-N-methylisonicotinamide] gave a pEC50 of 6.20. `CN(C(=O)c1ccc2nn(C(F)F)c(Cl)c2c1)[C@@H]1COCc2[nH]c(=O)c3cc(F)c(F)cc3c21` [Compound 360, (S)-3-Chloro-N-(8,9-difluoro-6-oxo-1,4,5,6-tetrahydro-2H-pyrano[3,4-c]isoquinolin-1-yl)-2-(difluoromethyl)-N-methyl-2H-indazole-5-carboxamide] showed a pEC50 of 6.92. `CN(C(=O)c1ccc(Cl)c(=O)[nH]1)[C@@H]1COCc2[nH]c(=O)c3cc(F)c(F)cc3c21` [Compound 201, (S)-5-Chloro-N-(8,9-difluoro-6-oxo-1,4,5,6-tetrahydro-2H-pyrano[3,4-c]isoquinolin-1-yl)-N-methyl-6-oxo-1,6-dihydropyridine-2-carboxamide] showed a pEC50 of 5.00. Compound `CN(C(=O)c1ccc2[nH]ncc2c1)C1CNCc2[nH]c(=O)c3cc(F)c(F)cc3c21` (single isomer, unassigned) [Compound 474, N-(8,9-difluoro-6-oxo-1,2,3,4,5,6-hexahydrobenzo[c][1,7]naphthyridin-1-yl)-N-methyl-1H-indazole-5-carboxamide] has a pEC50 of 5.42. `CN(C(=O)c1cnn(-c2ccc(F)cc2)c1)[C@@H]1COCc2[nH]c(=O)c3cc(F)c(F)cc3c21` [Compound 234, (S)-N-(8,9-Difluoro-6-oxo-1,4,5,6-tetrahydro-2H-pyrano[3,4-c]isoquinolin-1-yl)-1-(4-fluorophenyl)-N-methyl-1H-pyrazole-4-carboxamide] was tested, and the pEC50 was 4.98. `CN(C(=O)c1cc2cc(F)c(F)cc2[nH]1)[C@@H]1CCCc2[nH]c(=O)c3cc(F)c(F)cc3c21` [Compound 481, (R)-N-(8,9-difluoro-6-oxo-1,2,3,4,5,6-hexahydrophenanthridin-1-yl)-5,6-difluoro-N-methyl-1H-indole-2-carboxamide] showed a pEC50 of 8.00. Work on `CN(C(=O)c1cc2cc(F)c(F)cc2[nH]1)[C@@H]1COCc2c1c1cc(F)c(F)cc1c(=O)n2C` [Compound 240, (S)-N-(8,9-Difluoro-5-methyl-6-oxo-1,4,5,6-tetrahydro-2H-pyrano[3,4-c]isoquinolin-1-yl)-5,6-difluoro-N-methyl-1H-indole-2-carboxamide] yielded a pEC50 of 8.00.
